We go through one molecule from US7553843B2, “Process for the preparation of purified crystalline CCI-779” (Wyeth, priority 2005, dated 2009).

For data set [1], the system named is human glioblastoma cell line. The conditions noted are these: in vitro; cited from earlier work.
The test system of data set [2] is histologically diverse tumor cells. The conditions noted are these: in vitro, cited from earlier work.
Data set [3] has as its system human tumor xenografts. As to conditions: nude mice; cited from earlier work.
Data set [4] can be described thus: Storage stability of purified crystalline CCI-779, HPLC strength. In kind it is physicochemical. An excerpt:
The good crystallinity of the purified CCI-779 contributes to the improved stability of the purified CCI-779 and longer shelf life, and contains less oxidative impurities. In one embodiment, the purified crystalline CCI-779 of the present invention degrades less than about 3%, less than about 2%, or less than about 1% over a period of about 1 month. Desirably, the purified crystalline CCI-779 retains greater than 97% strength over a period of about 3 months, and more desirably about 6 months at about 5° C. as measured by high performance liquid chromatography (HPLC), among other techniques. The strength is similarly maintained at elevated temperatures up to about 70° C., desirably up to about 51° C., more desirably temperatures up to about 25° C. and greater relative humidities up to about 60%, and most desirably temperatures at about 5° C., or combinations thereof. In one embodiment, the purified crystallized CCI-779 prepared according to the present invention maintains its stability at a temperature of about 25° C. and relative humidity of about 60% for up to about 3 months, and more desirably up to about 6 months.
Following nucleation, the batch was aged for 34 minutes as indicated by the FBRM® instrument to obtain stabilization of the chord count. The pentanediol and heptane were added as described in Example 1. The isolated purified crystalline CCI-779 was washed and dried at 40 EC under vacuum for 48 hours. A yield of 176.3 g of purified crystalline CCI-779 was obtained (87.6%). See Table 1 for the HPLC data for the purified CCI-779 obtained immediately after crystallization and samples tested after 2 weeks and 1 month at varying conditions.
This example was performed using the same protocol as described in Example 2. However, filtration of the crude CCI-779 solution in acetone was completed in 30 minutes by using a medium grit fritted funnel. Following distillation of the acetone, the batch was held as an amorphous foam/oil for 2 hours under reduced pressures. Diethyl ether was then added to the foam/oil and the diethyl ether solution was evaluated for acetone content (8.5 vol %). The diethylether (containing acetone) was then removed by distillation to obtain an amorphous foam. This foam was maintained under reduced pressures for 30 minutes and diethyl ether again added. The diethylether was again monitored for acetone contact and determined to be less than 3.6 vol % acetone. The crystallization was the continued as in Example 2. The induction time for nucleation, i.e., the time required to obtain a chord count for particles of about 1 to about 5 μm particles of greater than about 1500 chords/s was 26 minutes. Following the nucleation, the slurry was stirred for additional time to ensure stabilization of the nucleation. Following isolation and drying as outlined above, a final yield of 175.1 g of purified crystalline CCI-779 was obtained (87.3%). See Table 2, for the HPLC data for the purified crystalline CCI-779 obtained immediately after crystallization and samples tested after 2 weeks and 1 month at varying conditions.

Data set [5] has as its system orthotopic glioma model. The conditions noted are these: nude mice; cited from earlier work.

As to `CO[C@H]1C[C@@H]2CC[C@@H](C)[C@@](O)(O2)C(=O)C(=O)N2CCCC[C@H]2C(=O)O[C@H]([C@H](C)C[C@@H]2CC[C@@H](OC(=O)C(C)(CO)CO)[C@H](OC)C2)CC(=O)[C@H](C)/C=C(\C)[C@@H](O)[C@@H](OC)C(=O)[C@H](C)C[C@H](C)/C=C/C=C/C=C/1C` [CCI-779, Rapamycin 42-ester with 3-hydroxy-2-(hydroxymethyl)-2-methylpropionic acid], in data set [1], the “growth factor (platelet-derived)-induced stimulation of a human glioblastoma cell line” value is given as “markedly suppressed”. Besides, the “growth of tumor cells” value in data set [2] (CNS cancer, T-cell leukemia, breast, prostate, melanoma lines most sensitive) is on record as “inhibit the growth”. Also, the cell cycle effect result in data set [2] was “arrested cells in the G1 phase”. Further, the “activity against human tumor xenografts of diverse histological types” value in data set [3] is reported as “has activity”. The “growth of several human pancreatic tumors and one of two breast cancer lines” value in data set [3] is “inhibited”. Further, the “HPLC Strength” value in data set [4] (Example 2 batch, Initial (immediately after crystallization)) is given as 101.09%; in data set [4] (Example 2 batch, storage 5° C., 1 Month) it was 97.42%; in data set [4] (Example 2 batch, storage 5° C., 2 Weeks) it was 101.09%; in data set [4] (Example 2 batch, storage 25° C./60% RH, 1 Month), 97.87%; in data set [4] (Example 2 batch, storage 25° C./60% RH, 2 Weeks) it was 101.07%; in data set [4] (Example 3 batch, Initial (immediately after crystallization)) it was 100.45%. The “HPLC Strength” value in data set [4] (Example 3 batch, storage 5° C., 1 Month) was found to be 97.55%; in data set [4] (Example 3 batch, storage 5° C., 2 Weeks), 100.45%; in data set [4] (Example 3 batch, storage 25° C./60% RH, 1 Month), 97.81%; in data set [4] (Example 3 batch, storage 25° C./60% RH, 2 Weeks) it was 101.30%. For the same molecule, in data set [5], the “activity in orthotopic glioma model” value was “active”.
